Source: patent US20140228315A1, “BLOCKADE OF EOSINOPHIL PRODUCTION BY TOLL-LIKE RECEPTORS” (CHILDREN'S HOSPITAL MEDICAL CENTER, priority 2011, published 2014)

B1: IL-10: cytokine added at 2 ng/ml to IL-5-containing medium (protein, UniProt P22301 19-178, looked up)
Interleukin-10: SPGQGTQSENSCTHFPGNLPNMLRDLRDAFSRVKTFFQMKDQLDNLLLKESLLEDFKGYLGCQALSEMIQFYLEEVMPQAENQDPDIKAHVNSLGENLKTLRLRLRRCHRFLPCENKSKAVEQVKNAFNKLQEKGIYKAMSEFDIFINYIEAYMTMKIRN

Tested on: developing eosinophils (eosinophil progenitors, EoPs) from LDBM cells
Experiment: Murine eosinophil liquid culture (LDBM cells, IL-5): eosinophil yield after TLR ligand or cytokine exposure
Format: cell-based, mouse
Conditions: for eosinophil yield (eosinophil production): wild-type cultures, TLR ligand exposure 18-24 hours on Day 8 in presence of IL-5, then IL-5 alone, yield at day 11-15; for number of mature eosinophils produced (eosinophil yield): cytokines added with IL-5 from Day 8 for the final 6 days of culture
Description: The femurs and tibiae of mice were crushed in a sterile mortar and pestle containing 1×PBS with 2% FBS, and cells were collected by filtration through a 70-μm strainer. Red blood cells were lysed using RBC lysis buffer (Sigma, St. Louis, Mo.), and the remaining cells were subjected to centrifugation at 1700 rpm for 30 minutes on a Histopaque 1083 (Sigma) gradient. LDBM cells were aspirated from the interface, washed twice with 1× PBS and cultured at 0.8-1×10^6 cells per ml in 6-well plates or 24-well plates containing Complete Medium composed of Iscove's Modified Dulbecco's Medium (IMDM) with Glutamax (Gibco, Carlsbad, Calif.), 10% characterized FBS (HyClone, Hudson, N.H.), 2 mM L-glutamine (Gibco), 50 μM 2-ME (Sigma), and penicillin and streptomycin (Gibco) supplemented with 100 ng/mL stem cell factor (SCF; Peprotech, Rocky Hill, N.J.) and 100 ng/mL FLT3-ligand (FLT3L; Peprotech). On day 4, the medium in each non-centrifuged plate was replaced with fresh Complete Medium containing 10 ng/mL murine IL-5 (Peprotech). Medium with IL-5 was changed every 2 days thereafter. On Day 8, some cultures were treated with LPS from E. coli serotype O55:B5 (Sigma), ultrapure LPS from S. minnesota (InvivoGen, San Diego, Calif.), monophosphoryl lipid A from S. minnesota R595LPS (InvivoGen), synthetic lipid A from E. coli (InvivoGen), Pam2CSK4 (InvivoGen), Pam3CSK4 (InvivoGen), imiquimod (InvivoGen), CL264 (InvivoGen), or poly(I:C) (InvivoGen) at indicated doses in the presence of IL-5.
After TLR ligand exposure for 18-24 hours, the medium was changed to Complete Medium with IL-5 at 10 ng/ml for the remaining culture period. For neutralization experiments, monoclonal anti-mouse IFN-γ (clone 37895; R&D Systems, Minneapolis, Minn.) or rat IgG2a isotype antibody was added at 0.3 μg/ml to media during LPS exposure and to Complete Medium with IL-5 thereafter. For some experiments, cytokines (IL-6 at 0.1 ng/ml, IL-10 at 2 ng/ml, IFN-γ at 0.5 ng/ml, TNF-α at 0.5 ng/ml, or the combination of all four) were added on Day 8 to IL-5-containing Complete Medium. Cells were cultured in the presence of these individual cytokines or the cytokine combination for the remainder of the culture period.
Whole bone marrow or LDBM cells were washed twice in 1×PBS containing 1% FBS and 1 mM EDTA at a concentration of 4×10^6 cells/mL and blocked with 0.5 μg rat anti-mouse CD16/CD32 (BD Bioscience, San Diego, Calif.) for 5 minutes at 4° C. Cells were incubated with fluorescent-labeled antibodies for 30 minutes at 4° C. and then washed twice and resuspended in flow cytometry buffer. Antibodies used include rat anti-mouse CD34-FITC (BD Bioscience), rat anti-mouse TLR4-PE (Imgenex, San Diego, Calif.), rat anti-mouse Siglec-F-PE (BD Bioscience), and rat anti-mouse CCR3-FITC (R&D Systems). All flow cytometric data were acquired using a FACS Calibur or FACS Canto flow cytometer (BD Bioscience).
FIG. 3A. A schematic of LPS exposure for eosinophil progenitors is depicted. LDBM cells were stimulated with SCF and FLT3L for 4 days and subsequently cultured with IL-5 for 4 days to initiate eosinophil differentiation. On Day 8, cultured cells were stimulated with LPS and IL-5 for 18-24 hours, after which the medium was changed, and the cells were cultured for another 6 days with IL-5 alone.

Molecule	eosinophil yield (eosinophil production)	number of mature eosinophils produced (eosinophil yield)
CCCCNc1nc(N)c2[nH]c(=O)n(Cc3ccc(C(=O)NCC(=O)O)cc3)c2n1 [CL264]	significant suppression of eosinophil yield	–
CC(C)Cn1cnc2c(N)nc3ccccc3c21 [imiquimod]	significant suppression of eosinophil yield	–
IFN-γ: cytokine added at 0.5 ng/ml to IL-5-containing medium	–	no significant effect
IL-6: cytokine added at 0.1 ng/ml to IL-5-containing medium	–	no significant effect
Pam2CSK4	dose-dependent reduction in eosinophil yield	–
Pam3CSK4	dose-dependent reduction in eosinophil yield	–
TNF-α	–	no significant effect
monophosphoryl lipid A [MPLA]	dose-dependent suppression of eosinophil production	–
poly(I:C)	no effect on eosinophil production	–
synthetic monophosphoryl lipid A [sMPLA]	significant suppression of eosinophil production at higher doses	–
B1	–	no significant effect
